The text below walks through data of publication PMC6973020, “Quinoline‐Conjugated Ruthenacarboranes: Toward Hybrid Drugs with a Dual Mode of Action” (Chemmedchem, 2019).

One assay deals with MCF‐7 cells. The assay can be described thus: AO staining (acidic vacuoles, autophagy), MCF‐7. Format: cell-based, human. As to conditions: MCF‐7, 20 μM, 72 h. The procedure:
Flow cytometry. For gaining better insights into the mechanisms of action of the ruthenium complexes, MCF‐7 and LN229 cells incubated with an IC50 dose of 3 or 4, were analyzed via flow cytometry. Several staining protocols were carried out in parallel, in independent experiments: i) AnnV/PI for the detection of apoptotic cell death, ii) AO for the detection of acidic vacuoles, iii) ApoStat for checking caspase activation, iv) CFSE for detecting interference with cellular proliferation, and v) DAPI for the detection of morphological signs of apoptosis. Untreated cells or cells treated only with BSA (control) were also measured, as reference for BSA‐free and BSA‐containing drug formulations, respectively. […] Channels FL1 (green emission), FL2 (orange emission) and/or FL3 (dark red emission) were used for fluorescence detection, according to the specific staining agent. Sideward Scatter (SSC) for MCF‐7 cells treated with 4 or BSA−4 was also analyzed, with respect to the control, for detection of shifts of cell granularity. […]
FCS, 2 mM L‐glutamine, 0.01% sodium pyruvate and antibiotics, at 37 °C in a humidified atmosphere with 5% CO2. […] Cells were counted and seeded in 96‐well plates and incubated overnight, as described above. […]
Staining Protocols for Flow Cytometric Analysis. […] Finally, cells were washed in PBS, resuspended in PBS (or AnnV‐binding buffer for AnnV/PI), and analysed. […]

The test system of assay [1] is murine microglial cell line BV‐2. Kind of assay: MTT cell viability assay, BV‐2. Type of assay: cell-based, mouse. As to conditions: 72 h. The text has this:
Thus, care must be taken when comparing their biological activities with those of our previous studies, even with the same cell line, because the covalent vs. non‐covalent combination of drugs might imply different mechanisms of action in the cell.44 Here, we studied the in vitro activity of ruthenacarborane 3, i. e. free acid, and its 8‐hydroxyquinolyl (4) and 4‐{(7‐chloroquinolin‐4‐yl)oxy}butanol‐1‐yl (5) esters, against a panel of cancer cell lines (B16 mouse melanoma, A375 human skin melanoma, MCF‐7 human breast adenocarcinoma, LN229 human glioblastoma, U251 human glioma). Human fibroblast cell line MRC‐5, murine microglial cell line BV‐2 as well as peritoneal exudate cells (Mph), were chosen as models for non‐malignant cells. […] On the other side, we wanted to assess the reproducibility of the viability data, under either controlled (with BSA) or uncontrolled (without BSA) conditions, in two sets of independent assays. […] Cells were exposed to 3–5 for 72 h, after which cell viability was determined via 3‐(4,5‐dimethylthiazol‐2‐yl)‐2,5‐diphenyltetrazolium bromide (MTT) and crystal violet (CV) assays, in parallel (Table 2). Cisplatin was also tested as reference.
Preparation of drug solutions. […] Stock solution of cisplatin was prepared in DMF (10 mM) immediately before use. A stock solution of BSA in PBS was prepared at 1.28 mM concentration, and stored at 4 °C in the dark. […] Alternatively, 3 or 4 (DMSO stock solution) were added to the BSA solution in PBS, always with a 10 : 1 molar ratio of BSA to ruthenacarborane. […]
Colorimetric assays for cellular viability. […] The absorbance was measured with an automated microplate reader at λmax 540 nm, with the reference λmax 670 nm. Untreated cells or cells treated only with BSA (control) were also measured, as reference for BSA‐free and BSA‐containing drug formulations, respectively. […] Cell viability is expressed as percentage (%) relative to control (untreated cultures).58 Experiments were run in three independent replicates. […]
Background: Formazan colour is commonly taken as a measure of viable cells.

As a reminder, the IC50 is the concentration that gives 50% inhibition. Regarding “closo ‐[3‐(η^6‐p‐Cymene)‐1‐(quinolin‐8‐yl‐acetate)‐3,1,2‐RuC2B9H10] [Compound 4]”, the “autophagy (AO staining)” value with MCF‐7 cells is “suppressed autophagy”. Further, in assay [1], the IC50 was 8.7 ± 0.1 µM.
In the case of “closo‐ [Compound 3, closo‐ [3‐(η^6‐p‐Cymene)‐1‐(CH2COOH)‐3,1,2‐RuC2B9H10]]”, in the assay with MCF‐7 cells, the “autophagy (AO staining)” value is “strongly amplified autophagic processes”. For the same substance, the IC50 in assay [1] worked out at 64.7 ± 0.7 µM.
